From patent US7393818B2 (priority 2003, dated 2008)

Tests used:
[1] = biological target: Scrapie (sheep) prion protein (Ovis aries, UniProt P23907)
prions = conditions: reported in literature; cited from earlier work

Sequence of Scrapie (sheep) prion protein (P23907 25-233 limits assumed): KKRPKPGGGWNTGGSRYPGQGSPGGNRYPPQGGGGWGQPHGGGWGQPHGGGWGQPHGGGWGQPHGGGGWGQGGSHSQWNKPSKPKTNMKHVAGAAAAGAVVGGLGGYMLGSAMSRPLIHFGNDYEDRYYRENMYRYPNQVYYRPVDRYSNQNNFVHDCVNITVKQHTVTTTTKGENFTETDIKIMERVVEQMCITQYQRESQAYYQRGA

| SMILES | effect on the percentage of samples showing presence of prion ([1]; in the period of the test (one hour soak)) | Percentage of Samples Tested where Prion (Scrapie) is Detected ([1]; wires soaked for one hour) | effectiveness against prions (prions) |
| --- | --- | --- | --- |
| OO [7% Hydrogen Peroxide, hydrogen peroxide] | no effect | 100% | – |
| O=CCCCC=O [Glutaraldehyde] | – | – | ineffective |
| C1CO1 [ethylene oxide] | – | – | ineffective |
| OO [hydrogen peroxide] | – | – | ineffective |
